The nature of data set [1]: Human liver microsomal clearance (hLM Cl). In kind it is in vitro ADME. The note with it: cells marked *.
The target in data set [2] is T1, wt human LRRK2, catalytic site (Homo sapiens, UniProt Q5S007).
T1 construct: wt human LRRK2, catalytic site, catalytic site (ThermoFisher/USA); purchased ThermoFisher
As to the kind of experiment: TR-FRET LanthaScreen Tb Kinase Activity Assay, LRRK2 kinase inhibition. Format: biochemical. The note with it: 2 nM wt human LRRK2, 400 nM peptide, 38 μM ATP. Here is the method: The compounds disclosed herein were tested for their inhibitory effect on LRRK2 kinase according to the following procedures.
The protocol for basic TR-FRET LanthaScreen Tb Kinase Activity Assay inhibitor studies is as follows. LanthaScreen Kinase Activity Assays (ThermoFisher/USA) to evaluate inhibitors were performed by addition of 100 nL of test compound in the corresponding DMSO dilutions/5 L of kinase/fluorescein-ERM(LRRKtide) peptide mixture, Compound & kinase were pre-incubated for 15 minutes, then 5 μl of ATP into 384 well small volume plates. After incubation for 120 minutes at room temperature, the detection reagents containing Tb-anti-pLRRKtide antibody were added to monitor the phosphrylation level of peptide. Then, after 60 min minutes incubation at room temperature plates were read in Envision. Data analysis of emission ratios was according to the LanthaScreen Tb Kinase Activity Assay protocol.
Kinase and assay components were adjusted to final concentrations according to the kit protocol. For LRRK2: 2 nM wt human LRRK2, catalytic site, catalytic site (ThermoFisher/USA), 400 nM peptide, 38 μM ATP in 1× Kinase Buffer A.
Basic protocol for TR-FRET LanthaScreen Tb Kinase Activity Assay inhibitor studies involved two steps: Enzymatic step: Addition of 100 nl of test compound in corresponding DMSO dilutions, 5 μl of kinase/substrate mixture, 5 μl of ATP into 384 well small volume plates. Incubation for 120 minutes at room temperature.
Detection step: Addition of 10 μl EDTA & antibody, read plate after 60 minutes. Data analysis of emission ratios according to KinEASE assay protocol.
Kinase and assay components were adjusted to final concentrations according to the kit protocol.

The subject of the next data set is Caco-2 cells. As to the kind of experiment: Caco-2 bidirectional permeability. Format: in vitro ADME. The note with it: for Caco-2 A2B (10^−6 cm/s): A to B; for Caco-2 A2B (10^−6 cm/s) / Caco-2 B2A (10^−6 cm/s): HBSS pH 7.4, 2 hours; for Caco-2 B2A (10^−6 cm/s): B to A; for Caco-2 ER: Efflux Ratio=Papp (BA)/Papp (AB). Here is the method:
The compounds disclosed herein were tested in vitro on CaCo2 cell penetration according to the following procedures.
Test compounds were prepared in dimethyl sulfoxide (DMSO).
Caco-2 cells purchased from ATCC were seeded onto […] (PET) in 96-well Corning Insert plates at 1×10^5 cells/cm^2. The media were refreshed every 4 to 5 days until the 21st to 28th day for confluent cell monolayer formation.
Experiments were run in duplicate using a HBSS transport buffer containing 10 mM HEPES at pH 7.4. The test article TEST COMPOUND was tested bi-directionally at […] concentrations, the control compound digoxin was tested bi-directionally at 10 μM, and nadolol and metoprolol were tested at 2.0 μM in the A to B direction. Final DMSO concentrations were adjusted to less than 1%. The plates were incubated for 2 hours in a CO2 incubator at 37±1° C. with 5% CO2 at saturated humidity without shaking. Following incubation, samples were mixed with acetonitrile containing internal standard and centrifuged at 3200×g for 10 minutes. Then 200 μL of supernatant was taken from all samples. For TEST COMPOUND and digoxin, the supernatant was diluted with 200 μL of ultra-pure water and for nadolol and metoprolol, the supernatant was diluted with 600 μL of ultra-pure water. All samples were analyzed by LC-MS/MS. Concentrations of TEST COMPOUND and control compounds were determined in starting solutions, donor well solutions, and receiver well solutions using peak area ratios (PAR) of analyte to internal standard. After the transport assay, a lucifer yellow rejection assay was run to determine the Caco-2 cell monolayer integrity.
The apparent permeability (Papp), the % recovery and the efflux ratio were calculated as follows: • 1. Papp=(dCr/dt)×Vr/(A×C0) • 2. % Recovery=100×[(Vr×Cr)+(Vd×Cd)]/(Vd×C0) • 3. Efflux Ratio=Papp (BA)/Papp (AB) • Where: • dCr/dt is the slope of the cumulative concentration in the receiver compartment versus time (mM/s). • Vr and Vd is the volume in the receiver and donor compartments (0.075 mL on the apical side, 0.25 mL on the basolateral side), respectively. • A is the surface area of the cell monolayer (0.0804 cm^2). • C0 is the measured donor concentrations (μM) at the beginning of the experiment. • Cd and Cr are the final measured concentrations in the donor and receiver compartments, respectively.
The cell monolayer tight junction integrity assay was conducted after completion of the transport assay by adding Lucifer Yellow (LY) to the apical wells at 100 μM and incubating the cells for 30 minutes. Following incubation, tight junction integrity was assessed from LY concentrations in the basolateral compartment (receiver well) and the apical compartment (donor well) using fluorescence detection as follows: […]

A short description of data set [3]: Human hepatocyte stability, in vitro h-Hept CLpredict. In kind it is in vitro ADME. The note with it: cryopreserved hepatocytes, predicted hepatic clearance, cells without asterisk, read-out: hHep Cl. On the procedure: The compounds disclosed herein were tested in vitro on human hepatocyte for in vitro h-Hept CLpredict according to the following procedures. • 1. Compound sock solutions were prepared by dissolving test compound and positive control in dimethyl sulfoxide (DMSO) at a concentration of 10 mM. Stock solutions were then diluted to 100 μM solutions by combining 198 μL of 50% acetonitrile/50% water with 2 μL of the 10 mM stock stock in separate conical tubes. • 2. Cryopreserved hepatocytes were prepared as follows: Incubation medium (William's E Medium supplemented with GlutaMAX) and hepatocyte thawing medium were placed in a 37° C. water bath and allowed to warm for at least 15 minutes prior to use. Cryopreserved hepatocytes were removed from storage, ensuring that vials remained at cryogenic temperatures until thawed. Cells were thawed by placing the vials in a 37° C. water bath and gently shaking the vials for 2 minutes. After thawing was completed, vials were sprayed with 70% ethanol and transferred to a biosafety cabinet. Hepatocytes were transferred into 50 mL conical tube containing thawing medium using wide-bore pipette tips. Tubes were placed into a centrifuge and spun at 100 g for 10 minutes. Then thawing medium was aspirated and hepatocytes were resuspended in enough incubation medium to yield−1.5×10^6 cells/mL. Cells were counted using acridine orange and propidium iodide (AO/PI) staining, and the viable cell density was determined. Cells were diluted with incubation medium to a working cell density of 0.5×10^6 viable cells/mL. • 3. To determine hepatocyte stability, 198 μL of hepatocytes were transferred into each well of a 96-well non-coated plate. Plates were placed in an incubator to allow the hepatocytes to warm for 10 minutes. • 4. The reaction was started by transferring 2 μL of the 100 μM test compound or positive control solution into respective wells of the 96-well non-coated plates. Plates were returned to the incubator until 25 μL aliquots of well contents were sampled at time points of 0, 15, 30, 60, 90 and 120 minutes. The aliquots were then mixed with 6 volumes (150 μL) of acetonitrile containing internal standard, IS (100 nM alprazolam, 200 nM caffeine and 100 nM tolbutamide) to terminate the reaction and vortexed for 5 minutes. After centrifuging the samples for 45 minutes at 3,220 g, aliquots of 100 μL of the supernatant were taken and diluted with 100 μL of ultra-pure water. The mixture was used for LC/MS/MS analysis. All incubations were performed in duplicate.
All calculations were carried out using Microsoft Excel. Peak area ratios (PAR) were determined from extracted ion chromatograms. The in vitro half-life (t1/2) of parent compound was determined by regression analysis of the percent parent disappearance vs. time curve as follows:
The in vitro half-life (in vitro t1/2) was determined from the slope value:
Conversion of the in vitro t1/2 (in minutes) into the in vitro intrinsic clearance (in vitro CLint, in μL/min/1×10^6 cells) was done using the following equation (mean of duplicate determinations): […]
The scaled-up intrinsic clearance (CLint, mL/min/kg), predicted hepatic clearance (CLH, mL/min/kg) and hepatic extraction ratio (ER) were calculated using the following equations:
CLint=(0.693/t1/2)*(1/(hepatocyte concentration (0.5*10^6 cells/mL))*scaling factors (Table (A)
• CLHept-predict=(QH*Scaled-up CLint*fub)/(QH+Scaled-up CLint*fub) • ER=CLH/QH • Where: • V=incubation volume (0.2 mL) • N=number of hepatocytes per well (0.1*10^6 cells) • QH=hepatic blood flow (mL/min/kg) (Table (A)
• fub=fraction of unbound drug in plasma, assumed to be 1 • Values used for calculation of the predicted hepatic clearance parameters data processing rules are outlined in the following tables (A) (B)

The source of these data is patent US20240208972A1, “LRRK2 INHIBITORS AND USES THEREOF” (NEURON23, INC., priority 2022, published 2024).

pIC50: −log10 of the molar value.

T1 sequence (Q5S007 1879-2138 limits assumed): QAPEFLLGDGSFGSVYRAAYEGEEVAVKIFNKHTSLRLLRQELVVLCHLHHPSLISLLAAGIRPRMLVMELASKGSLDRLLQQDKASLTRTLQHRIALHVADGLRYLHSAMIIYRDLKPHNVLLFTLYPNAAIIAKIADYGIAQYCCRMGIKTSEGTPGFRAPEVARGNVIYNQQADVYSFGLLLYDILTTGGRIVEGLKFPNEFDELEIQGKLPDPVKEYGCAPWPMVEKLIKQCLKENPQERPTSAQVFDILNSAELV

Regarding `Cc1n[nH]c2c1N=C(c1c(F)cccc1F)Nc1c-2cc(C2CCOCC2)nc1C` [Example 38, 8-(2,6-difluorophenyl)-5,11-dimethyl-13-tetrahydropyran-4-yl-3,4,7,9,12-pentazatricyclo[8.4.0.02,6]tetradeca-1(10),2(6),4,7,11,13-hexaene], the “hLM Cl (mL/min/kg)” value in data set [1] is reported as “I* (I (Intermediate C1)”: 6.3 mL/min/kg≤Hep Cl≤14.7 mL/min/kg)”. Moreover, in data set [2], the pIC50 was more than 8.70. Also, in the data set on Caco-2 cells, the “Caco-2 A2B (10^−6 cm/s)” value is listed as “H (H (High permeability)”: A2B (B2A)>5)”, the “Caco-2 B2A (10^−6 cm/s)” value was “H (H (High permeability)”: A2B (B2A)>5)” and the “Caco-2 ER” value is given as “N (N (Non-substrate)”: ER<2.5)”.

For `Cc1n[nH]c2c1N=C(c1c(F)cccc1F)Nc1cnc(-c3ccc(C(F)(F)F)nc3)cc1-2` [Example 58, 8-(2,6-difluorophenyl)-5-methyl-13-[6-(trifluoromethyl)-3-pyridyl]-3,4,7,9,12-pentazatricyclo[8.4.0.0^2,6]tetradeca-1(10),2(6),4,7,11,13-hexaene], in data set [2], the pIC50 was more than 8.70. Further, the CLhep predicted at 1 µM in data set [3] is 6.3 to 14.7 mL/min/kg. In addition, in the data set with Caco-2 cells, the “Caco-2 A2B (10^−6 cm/s)” value was “H (H (High permeability)”: A2B (B2A)>5)”, the “Caco-2 B2A (10^−6 cm/s)” value was “H (H (High permeability)”: A2B (B2A)>5)” and the “Caco-2 ER” value is listed as “N (N (Non-substrate)”: ER<2.5)”.

As for `Cc1n[nH]c2c1N=C(c1c(F)cccc1F)Nc1c-2cc(N2CCO[C@@H](COC(F)(F)F)C2)nc1C` [Example 48, (R)-4-(5-(2,6-difluorophenyl)-3,7-dimethyl-1,6-dihydropyrazolo[4,3-d]pyrido[4,3-f][1,3]diazepin-9-yl)-2-((trifluoromethoxy)methyl)morpholine], the “hLM Cl (mL/min/kg)” value in data set [1] was “I* (I (Intermediate C1)”: 6.3 mL/min/kg≤Hep Cl≤14.7 mL/min/kg)”. Moreover, the pIC50 in data set [2] is more than 8.70. For the same compound, in the data set on Caco-2 cells, the “Caco-2 A2B (10^−6 cm/s)” value is on record as “M (M (Moderate permeability)”: 1≤A2B (B2A)≤5)”, the “Caco-2 B2A (10^−6 cm/s)” value is reported as “M (M (Moderate permeability)”: 1≤A2B (B2A)≤5)” and the “Caco-2 ER” value is listed as “N (N (Non-substrate)”: ER<2.5)”.

For `Cc1n[nH]c2c1N=C(c1c(F)cccc1F)Nc1ccc(-c3ccn(C(F)F)n3)cc1-2` [Example 14, 9-[1-(difluoromethyl)pyrazol-3-yl]-5-(2,6-difluorophenyl)-3-methyl-1,6-dihydropyrazolo[4,3-d][1,3]benzodiazepine], the pIC50 in data set [2] is more than 8.70. The CLhep predicted at 1 µM in data set [3] is more than 14.7 mL/min/kg. In the data set with Caco-2 cells, the “Caco-2 A2B (10^−6 cm/s)” value is recorded as “H (H (High permeability)”: A2B (B2A)>5)”, the “Caco-2 B2A (10^−6 cm/s)” value is “H (H (High permeability)”: A2B (B2A)>5)” and the “Caco-2 ER” value was “N (N (Non-substrate)”: ER<2.5)”.

Consider `Cc1n[nH]c2c1N=C(c1c(F)cccc1F)Nc1c-2cc(N2CCN(C)[C@H](C(F)(F)F)C2)nc1C` (single isomer, unassigned) [Example 36], for which, in data set [1], the “hLM Cl (mL/min/kg)” value is listed as “I* (I (Intermediate C1)”: 6.3 mL/min/kg≤Hep Cl≤14.7 mL/min/kg)”. Moreover, in data set [2], the pIC50 is more than 8.70. Further, in the data set with Caco-2 cells, the “Caco-2 A2B (10^−6 cm/s)” value is on record as “H (H (High permeability)”: A2B (B2A)>5)”, the “Caco-2 B2A (10^−6 cm/s)” value is “H (H (High permeability)”: A2B (B2A)>5)” and the “Caco-2 ER” value is reported as “N (N (Non-substrate)”: ER<2.5)”.

Compound `COc1nc(N2CCOCC2)cc2c1NC(c1c(F)cccc1F)=Nc1c(C)n[nH]c1-2` [Example 45, 4-[8-(2,6-difluorophenyl)-11-methoxy-5-methyl-3,4,7,9,12-pentazatricyclo[8.4.0.02,6]tetradeca-1(10),2(6),4,7,11,13-hexaen-13-yl]morpholine] showed a pIC50 in data set [2] of more than 8.70. Moreover, in data set [3], the CLhep predicted at 1 µM was 6.3 to 14.7 mL/min/kg. In the data set on Caco-2 cells, the “Caco-2 A2B (10^−6 cm/s)” value was “H (H (High permeability)”: A2B (B2A)>5)”, the “Caco-2 B2A (10^−6 cm/s)” value is reported as “M (M (Moderate permeability)”: 1≤A2B (B2A)≤5)” and the “Caco-2 ER” value is “N (N (Non-substrate)”: ER<2.5)”.

Take `Cc1n[nH]c2c1N=C(c1c(F)cccc1F)Nc1ccc(N3C[C@H](C)O[C@@H](C)C3)cc1-2` [Example 24, (2S,6S)-4-(5-(2,6-difluorophenyl)-3-methyl-1,6-dihydrobenzo[d]pyrazolo[3,4-f][1,3]diazepin-9-yl)-2,6-dimethylmorpholine]: the pIC50 in data set [2] was more than 8.70. Besides, the CLhep predicted at 1 µM in data set [3] was 6.3 to 14.7 mL/min/kg. In the data set with Caco-2 cells, the “Caco-2 A2B (10^−6 cm/s)” value was “H (H (High permeability)”: A2B (B2A)>5)”, the “Caco-2 B2A (10^−6 cm/s)” value is given as “H (H (High permeability)”: A2B (B2A)>5)” and the “Caco-2 ER” value is “N (N (Non-substrate)”: ER<2.5)”.
